Data taken from article PMC10859961, “Ir(III) Half-Sandwich Photosensitizers with a π-Expansive Ligand for Efficient Anticancer Photodynamic Therapy” (Journal of Medicinal Chemistry, 2024).
Where two headings read alike, the source gives them in different places.

What was measured:
A549 cells [1] = assay: Mitochondrial membrane potential (JC-1, flow cytometry); type: cell-based, human; conditions: positive control, 5 μM, 30 min
Procedure: A549 cells were seeded onto 24-well plates. 24 h later, cells were incubated for 4 h with complexes 2, 4, 6, and 8 at 10 nM and then photoactivated or kept in the dark for an additional hour. Next, the cells were washed with PBS and harvested by trypsinization. Mitochondrial membrane potential changes were immediately measured by the JC-1 (5,5′,6,6′-tetrachloro-1,1′,3,3′-tetraethylbenzimidazolocarbo-cyanine iodide) Mitochondrial Membrane Potential Detection Kit (Biotium), according to the manufacturer’s instructions. As positive control, the cells were coincubated with CCCP (Sigma) at 5 μM for 30 min to disrupt the mitochondrial membrane potential. For each treatment, the fluorescence of 1 × 10^4 cells was analyzed by a Novocyte flow cytometer. JC-1 red aggregates were detected at a wavelength of 590 nm (FL2) and JC-1 green monomers at 529 nm (FL1).

A549 cancer cells = assay: MTT cell viability assay, dark or photoactivated; type: cell-based, human; conditions: A549, MTT; for IC50: 4 h incubation
Procedure: Cells were cultured in 96-well plates at a density of 3000 (A549), 2500 (HeLa), or 5000 (PC-3, 1BR.3.G, and MRC-5) cells per well in cell culture medium and allowed to attach for 24 h. Solutions of the complexes at different concentrations were prepared for cell treatments. In all cases, the solid compounds were weighed using an analytical balance (Mettler Toledo AX205DR) to ensure precise measurements. Subsequently, 5 mM solutions were prepared using DMSO. Solutions were then diluted in water to reach a concentration of 1 mM and then, aliquots were taken and diluted in culture medium to obtain solutions ranging from 0 to 50 μM. […] The cells were treated with these solutions in dark conditions or following the photoactivation protocol (see below). 48 h later the treatments were removed, and cells were washed with phosphate-buffered saline (PBS).
Initially, the effect of the complexes on the cell viability was determined by the 3-(4,5-dimethylthiazol-2-yl)-2,5-diphenyltetrazolium bromide (MTT) assay.[147] The cells were incubated for 2 h with 100 μL of culture medium together with 10 μL of MTT (Sigma-Aldrich) at 0.5 mg/mL. After discarding the medium, DMSO was added to each well to dissolve the purple formazan crystals. The absorbance of each well was determined on a Multiscan Plate Reader (Synergy 4, Biotek, Winooski) at a wavelength of 570 nm. Cell viability was also assessed using the CyQUANT Direct Cell Proliferation Assay (Thermo Fisher Scientific), following the manufacturer’s instructions. Briefly, after the treatments, the cells were washed with PBS, and an equal volume of culture medium and CyQUANT mix was added to each well. The plates were then incubated for 1 h at 37 °C. Subsequently, the fluorescence intensity was bottom read using a Multiscan Plate Reader (Synergy 4, Biotek, Winooski) with excitation and emission filters of 485 and 528 nm, respectively. In both assays, at least three replicates were measured for each treatment. The concentration that reduces the cell viability by 50% (IC50) was established using the Gen5 software (BioTek). Three independent experiments were carried out for each compound. […] The phototoxicity index (PI = IC50,dark/IC50,light) was determined.
To assess the photodynamic activity of the complexes, cells were incubated with the complexes for 4 h to enable their intracellular accumulation. The cells were then irradiated with light with a wavelength of 460 nm (blue), 530 nm (green), or 655 nm (red) for 1 h using a LED system (LuxLight) with an effective power of 6.7 mW cm^–2, which provides a total light dose of 24.1 J cm^–2. The LED system was positioned at 25 mm from the cell culture plates.

[2] = test system: porcine red blood cells (RBC); assay: Hemolytic activity (hemoglobin release); type: cell-based; conditions: dark, 1 hour
Procedure: The hemolytic activities of the complexes were determined by measuring hemoglobin release from porcine red blood cells (RBC). First, fresh porcine blood commercially obtained was diluted to 5% v/v in PBS solution and washed three times with PBS by centrifugation at 1000 rcf for 10 min. Then, RBC suspension (150 μL) was mixed with 150 μL of each complex at concentrations ranging from 1 to 50 μM. A solution of 0.2% Triton X-100 in PBS was used as positive control to induce complete hemolysis. PBS alone was used as negative control. Samples were incubated at 37 °C for 1 h in an orbital shaker (50 rpm) and then centrifuged at 3500 rcf for 10 min. 80 μL aliquots of the supernatant were transferred to a 96-well plate and diluted with 80 μL of Milli-Q water. Hemolysis was evaluated by measuring the absorbance of the samples at 540 nm with a Synergy 4 plate reader (BioTek, Winooski). The percentage of hemolysis (H) was calculated using eq 4: [drawing 25] 4 where As is the absorbance for a given sample, An is the absorbance for the negative control, and Ap is the absorbance for the positive control. Each sample was tested in triplicate.

A549 cells [3] = assay: Cell death mechanism (Annexin V-FITC / propidium iodide); type: cell-based, human; conditions: positive control 50 μM for 24 h
Procedure: The cell death mechanism was analyzed with the Vybrant Apoptosis Assay Kit (Molecular Probes). A549 cells seeded in 12-well plates at a density of 1 × 10^5 cells per well were treated with complex 6 at the corresponding IC50,light × 5 under photoactivation conditions. Cisplatin at 50 μM was used as positive control. 4 and 20 h after the irradiation, cells were collected by trypsinization and immediately stained with Annexin V-FITC and propidium iodide according to the manufacturer’s instructions. The median fluorescence of 10,000 cells of each sample was analyzed by flow cytometry. Annexin-FITC staining was detected at a wavelength of 520 nm (FL1) and propidium iodide was detected at 617 nm (FL2).

CT26 = test system: CT26; parameters: method as in p (Pozza et al., Inorg. Chem. 2023); conditions: 540 nm, dose 9 J cm‐2, ref p (Pozza et al., Inorg. Chem. 2023); cited from earlier work
[4] = Photocatalytic NADH oxidation (UV-vis); type: biochemical; parameters: key: TON = ΔNADH concentration after 1 h / photocatalyst concentration; conditions: first hour, complex 2.5 μM, NADH 100 μM
Procedure: Fresh stock solutions of the complexes at 7.50 μM in H2O/MeOH mixture (97.5/2.5, v/v) and NADH at 300 μM in H2O/MeOH mixture (97.5/2.5, v/v) were prepared. In a quartz cell, 1 mL of complex solution, 1 mL of NADH solution, and 1 mL of solvent mixture were mixed to prepare a final solution with 2.50 μM complex and 100 μM NADH (complex/NADH rate = 1/40). The solutions were studied by recording UV–vis absorption spectra in dark conditions and under blue light irradiation (λexc = 470 nm, “Medusa” photoreactor) at ambient temperature and various time intervals for 8 h. In addition, a solution of NADH at 100 μM was studied under blue light irradiation to confirm its photostability. The photocatalytic rate of the photosensitizers was evaluated by monitoring its absorbance decrease at 340 nm, which correspond to NADH oxidation.
The turnover numbers (TONs) of complexes were calculated by measuring the absorption difference at 340 nm after 1 h of reaction. TON was calculated from the difference in NADH concentration after 1 h divided by the concentration of photocatalyst (eq 5), where b is the optical path length (1 cm). The concentration of NADH was obtained using the extinction coefficient ε340 = 5751 M^–1 cm^–1.[40],[148] [drawing 26] 5

calf thymus DNA (CT-DNA) = assay: Competitive EtBr displacement assay; type: binding; conditions: CT-DNA saturated with EtBr; 1 h, room temperature; read-out: C50 (50% reduction of EtBr fluorescence)
Procedure: To investigate the capacity of the complexes to intercalate into DNA, the competitive ethidium displacement assay was carried out as previously described[149] with minor modifications. Stock solutions of 20 μM calf thymus DNA (CT-DNA) and 25 μM Ethidium bromide (EtBr) were prepared in saline TE (50 mM NaCl, 10 mM tris(hydroxymethyl) aminomethane–HCl, 0.1 mM ethylenediaminetetracetic acid (EDTA), pH 7.4). Serial dilutions of metal complexes were prepared at concentrations ranging from 20 to 400 μM from a 1 mM stock solution containing 20% DMSO. The assay was carried out by mixing 25 μL of CT-DNA and 25 μL of EtBr with 50 μL of each compound dilution, on a black 96-well plate. The plate was incubated at room temperature for 1 h and the fluorescence was measured on a Synergy 4 microplate reader (Biotek, Winooski), with excitation wavelength set to 500 nm, and emission wavelength set to 530–800 nm. The fluorescence emission at 590 nm was used to measure the C50, corresponding to the concentration of compound required to induce a 50% decrease in the fluorescence of the EtBr. Experiments were performed in triplicate.

[5] = 1O2 quantum yield determination with DPBF; conditions: acetonitrile; 470 nm blue light
Procedure: It was performed for complexes 1–8 in acetonitrile according to a relative procedure adapted from the literature[132]−[134] based on monitoring the oxidation of 1,3-diphenylisobenzofuran (DPBF, yellow) to 1,2-dibenzoylbenzene (colorless) photosensitized by the Ir(III) complexes. DPBF was used as an ^1O2 scavenger due to its fast reaction with this molecule. Fresh stock air-equilibrated solutions of photosensitizers (6.00 × 10^–6 M) and DPBF (1.50 × 10^–4 M) in acetonitrile were prepared. In a quartz cell, 1 mL of DPBF solution, 0.5 mL of complex solution, and 1.5 mL of acetonitrile were mixed to prepare a final solution with 5.00 × 10^–5 M DPBF and 1.00 × 10^–6 M complex. The final solutions were studied by recording UV–vis absorption spectra at room temperature in dark conditions (over a period of 6 min with time intervals of 2 min), under blue light irradiation (λexc = 470 nm, “Medusa” photoreactor) and under green light irradiation (λexc = 530 nm, “Medusa” photoreactor) for 5 s irradiation intervals during a total exposure period of 20 s. Absorption UV–vis spectra were recorded after every irradiation interval.
The consumption of DPBF probe was measured by monitoring its absorbance intensity decrease at 410 nm with irradiation time. ^1O2 generation quantum yield (ϕΔ) was calculated from eq 1 using Rose Bengal or [Ru(bpy)3]^2+ as reference for complexes with pbpz and pbpn ligands, respectively: [drawing 22] 1 where s and ref subscripts correspond to the complex and the reference, ϕΔ is the ^1O2 generation quantum yield (0.53 for Rose Bengal[135] and 0.56 for [Ru(bpy)3]Cl2[132] in degassed acetonitrile), S is the slope of the plots of the −ln(normalized absorbance) of DPBF at 410 nm vs the irradiation time, and F is the correction factor of absorption, which is given by F = 1–10^–O.D. (where O.D. is the optical density at 470 nm of solutions of complexes and references). The reproducibility of the results was confirmed by performing each experiment three times.
The stability of DPBF probe was studied in dark conditions and under light irradiation. In dark conditions and under green light irradiation the probe remains unaltered. However, under blue light irradiation, a photobleaching of DPBF was observed. Probe consumption was approximately 6.5% every 5 s. Therefore, a working interval of 20 s was chosen, where 75% of the probe remains stable. To calculate the ϕΔ, a correction factor was applied to the absorbance at 410 nm: a 6.5% of the previous value was added to each absorbance to counteract self-consumption of the probe (i.e., to the absorbance at 10 s, a 6.5% of the absorbance at 5 s was added).

[6] = kept in the dark, viability after 48 h, read-out: IC50 dark
[7] = blue light 460 nm 1 h (24.1 J cm^–2), 48 h, read-out: IC50 blue light

## N#CC(C#N)=NNc1cccc(Cl)c1 [CCCP, carbonyl cyanide m-chlorophenyl hydrazone, reference compound]
A549 cells [1]
  cells with red fluorescence (JC-1 aggregates), upper right quadrant: 21.9%

## N.N.[Cl][Pt][Cl] [Cisplatin, reference compound]
A549 cancer cells; [6]
  IC50: 8.9 ± 2 µM
[2]; 1 μM
  Hemolytic activity: 0%
[2]; 5 μM
  Hemolytic activity: 0%
[2]; 10 μM
  Hemolytic activity: 0%
[2]; 25 μM
  Hemolytic activity: 0.2%
A549 cells [3]
  cells in early apoptosis (AN+; IP−), lower right quadrant: 5.3%
  cells in late apoptosis (AN+; IP+), upper right quadrant: 26.1%
  cells in necrosis (AN–; IP+), upper left quadrant: 6.6%

## [Ru+2].c1ccc(-c2ccnc3c2ccc2c(-c4ccccc4)ccnc23)cc1.c1ccc(-c2ccnc3c2ccc2c(-c4ccccc4)ccnc23)cc1.c1cnc2c(c1)ccc1cccnc12 [[Ru(DIP)2(phen)]2+]
CT26
  PI: 1111
  PI/Dose: 123.4

## Cc1c(C)c(C)[c-](C)c1C.F[B-](F)(F)F.c1ccc2nc3c4ccc[n+]5c4c4[c](cccc4c3nc2c1)[Ir]5[n+]1cc[nH]c1 [complex 3, [(η^5-C5Me5)Ir(Im)(pbpz)]BF4]
A549 cancer cells; [7]
  IC50: 1.2 ± 0.1 µM
A549 cancer cells; green light 530 nm 1 h (24.1 J cm^–2), 48 h, read-out: IC50 green light
  IC50: 2.5 ± 0.3 µM
A549 cancer cells; [6]
  IC50: 4.9 ± 0.7 µM
A549 cancer cells; green light 530 nm, 24.1 J cm^–2
  PI green light (IC50,dark/IC50,light): 2.0
[4]; 470 nm blue light
  TON1h (NADH oxidation): 2.28
[4]; dark
  TON1h (NADH oxidation): 0.47
Calf thymus DNA (CT-DNA)
  IC50: 16.1 µM
[5]
  1O2 generation quantum yield (ϕΔ), DPBF: 0.0399

## [(η^5-C5Me5)Ir(bhq)Cl] [complex 10]
A549 cancer cells; [7]
  IC50: 5.6 ± 0.4 µM
A549 cancer cells; [6]
  IC50: 10 ± 0.3 µM
A549 cancer cells; blue light 460 nm, 24.1 J cm^–2
  PI blue light (IC50,dark/IC50,light): 1.8
